Laboratory results from article PMC9865645, “The Impact of N^ε-Acryloyllysine Piperazides on the Conformational Dynamics of Transglutaminase 2” (International Journal of Molecular Sciences, 2023).

Molecular target: T1, in-house produced N-terminally Twin-Strep-tagged hTGase 2 (Homo sapiens, UniProt P21980)
T1 construct: thrombin cleavage site (N); made in house; host or cells: E. coli BL21(DE3)
T1 sequence (P21980 1-687): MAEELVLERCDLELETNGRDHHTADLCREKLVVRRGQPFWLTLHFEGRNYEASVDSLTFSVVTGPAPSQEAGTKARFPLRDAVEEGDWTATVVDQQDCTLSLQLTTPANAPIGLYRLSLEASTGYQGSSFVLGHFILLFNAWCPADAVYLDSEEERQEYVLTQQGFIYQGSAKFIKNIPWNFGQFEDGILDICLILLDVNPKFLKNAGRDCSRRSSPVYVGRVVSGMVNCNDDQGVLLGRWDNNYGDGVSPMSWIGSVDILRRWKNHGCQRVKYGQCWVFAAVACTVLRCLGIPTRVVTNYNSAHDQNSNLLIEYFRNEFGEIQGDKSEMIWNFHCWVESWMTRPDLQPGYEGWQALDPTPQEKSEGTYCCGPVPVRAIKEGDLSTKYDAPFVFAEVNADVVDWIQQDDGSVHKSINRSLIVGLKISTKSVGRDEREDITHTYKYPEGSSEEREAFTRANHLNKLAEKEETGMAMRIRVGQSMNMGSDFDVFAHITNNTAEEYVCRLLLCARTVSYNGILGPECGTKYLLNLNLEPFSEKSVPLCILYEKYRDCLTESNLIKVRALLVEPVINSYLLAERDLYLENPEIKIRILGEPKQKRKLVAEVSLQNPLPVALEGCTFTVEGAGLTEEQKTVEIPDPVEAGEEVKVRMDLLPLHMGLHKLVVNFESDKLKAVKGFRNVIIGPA
Test: fluorescence anisotropy (FA)-based transamidase activity assay, in-house Twin-Strep-tagged hTGase 2
Format: biochemical
Excerpt: The gene of hTGase 2 (Uniprot ID: P21980) with an N-terminal thrombin cleavage site was cloned into the pPSG-IBA105 vector containing the sequence for an N-terminal Twin-Strep-tag (IBA Lifesciences GmbH, Göttingen, Germany) to obtain the final plasmid pPSG-IBA105/TCS-hTGase 2. The plasmid construct was verified by DNA sequencing (Eurofins Genomics Germany GmbH) and then transformed into E. coli BL21(DE3) by the heat–shock method. hTGase 2-expressing E. coli cells were lysed by lysozyme treatment, and hTGase 2 was purified by affinity chromatography on an ÄKTA purifier UPC 10 FPLC equipped with a Strep-Tactin XT cartridge (GE Healthcare Europe GmbH, Freiburg, Germany). Identity and purity of self-produced hTGase 2 were verified by SDS-PAGE and Western Blot analysis, respectively. Protein concentration was determined according to Bradford. More detailed descriptions of the generation and characterization of the final plasmid construct pPSG-IBA105/TCS-hTGase 2 and the expression, purification, and characterization of the self-produced hTGase 2 protein will be published elsewhere (manuscript in preparation).
For the analysis of inhibitor 1 on self-produced hTGase 2, 2 µg/mL of the enzyme was used to guarantee comparability with the value reported by Wodtke et al., whereas all other experiments were performed with 5 µg/mL of either commercial or self-produced hTGase 2 (corresponding to 64.1 and 61.6 nM, respectively, when assuming 100% active protein). Parallel and perpendicular fluorescence intensities were measured over 1190 s in 35 s intervals (1) or over 1776 s in 48 s intervals (2, 3) and used to calculate the FA. Data of FA for the first 875 s (1) or 384 s (2, 3) were analyzed by linear regression, with slopes corresponding to enzymatic rates. Rates in the presence of inhibitor were normalized by dividing them by the respective rate in the absence of inhibitor, and normalized rates were analyzed according to Equation (S29) in Supplementary Materials to calculate values of IC50. Data analysis was performed with Microsoft Excel (Microsoft Office Professional Plus 2016, Microsoft® Corporation, USA) and GraphPad Prism version 5.03 or version 6.07 for Windows (GraphPad Software, La Jolla, CA, USA).

IC50 (5 min pre-incubation of enzyme and inhibitor, mean (SEM) of three experiments): 116 nM
IC50 (30 min pre-incubation, hTGase 2 (in-house) 61.6 nM, mean (SEM)): 35.2 nM
SMILES: C=CC(=O)NCCCC[C@H](NC(=O)Cc1ccccc1I)C(=O)N1CCN(c2ccc([N+](=O)[O-])nc2)CC1 [Compound 2, N^α-(2-Iodophenylacetyl)-N^ε-acryloyl-L-lysin-4-(2-nitropyridin-5-yl)piperazide]
